# Assay results published in patent US11767323B2, “Tricyclic pyridone compounds as JAK2 V617F inhibitors” (Incyte Corporation, priority 2020, dated 2023).
# Columns and labels:
# [1] = target: catalytic domain (JH1, amino acids 808-1132) of human JAK2 (Homo sapiens (Human), UniProt O60674); assay: JAK2 HTRF Enzyme Activity Assay; assay type: biochemical; conditions: JAK2 0.015 nM, ATP (30 μM or 1 mM), 60 minutes at 25° C.
# Protocol: Example D. JAK2 HTRF Enzyme Activity Assay
# JAK2 enzyme activity assays utilize catalytic domain (JH1, amino acids 808-1132) of human JAK2 expressed as N-terminal His-tagged protein in a baculovirus expression system (BPS Bioscience, Catalog #40450). The assays was conducted in black 384-well polystyrene plates in a final reaction volume of 20 μL. JAK2 (0.015 nM) was incubated with compounds (100 nL serially diluted in DMSO) in the presence of ATP (30 μM or 1 mM) and 500 nM Biotin-labeled EQEDEPEGDYFEWLE (SEQ ID NO.: 1) peptide (BioSource International, custom synthesis) in assay buffer (50 mM Tris, pH=7.5, 10 mM MgCl2, 0.01% Brij-35, 0.1% BSA, 1 mM EGTA, 5% Glycerol and 5 mM DTT) for 60 minutes at 25° C. The reactions were stopped by the addition of 10 μL of detection buffer (50 mM Tris, pH 7.8, 0.5 mg/mL BSA, 150 mM NaCl), supplemented with EDTA, LANCE Eu-W1024 anti-phosphotyrosine (PY20), (PerkinElmer, Catalog #AD0067) and Streptavidin SureLight APC (PerkinElmer Catalog #CR130-100), for a final concentration of 15 mM, 1.5 nM and 75 nM, respectively. HTRF signals were read after 30 minutes incubation at room temperature on a PHERAstar FS plate reader (BMG LAB TECH). Data was analyzed with IDBS XLfit and GraphPad Prism 5.0 software using a four parameter dose response curve to determine IC50 for each compound.
# [2] = target: pseudo-kinase domain (JH2, amino-acids 536-812) of human Wild Type JAK2 (Homo sapiens (Human), UniProt O60674, F794H/W659A/W777A); assay: JAK2 LanthaScreen JH2-WT Binding Assay; conditions: JAK2 JH2-WT 0.145 nM, 50 nM tracer, 1 hour at 25° C.; read-out: JH2 BIND WT IC50
# Chain of pseudo-kinase domain (JH2, amino-acids 536-812) of human Wild Type JAK2 (O60674 536-812 W659A/W777A/F794H): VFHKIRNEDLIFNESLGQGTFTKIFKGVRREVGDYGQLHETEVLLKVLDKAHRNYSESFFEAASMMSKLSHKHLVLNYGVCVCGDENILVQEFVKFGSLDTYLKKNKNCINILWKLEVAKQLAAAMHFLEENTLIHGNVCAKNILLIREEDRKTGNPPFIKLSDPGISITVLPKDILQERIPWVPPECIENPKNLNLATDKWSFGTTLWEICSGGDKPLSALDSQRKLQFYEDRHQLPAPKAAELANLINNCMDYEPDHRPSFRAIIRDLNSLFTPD
# Protocol: Example B. JAK2 LanthaScreen JH2-WT Binding Assay
# (§1) JAK2 JH2-WT binding assay utilizes pseudo-kinase domain (JH2, amino-acids 536-812 with 3 surface mutations W659A, W777A, F794H) of human Wild Type JAK2 expressed as C-terminal His-Avi-tagged, biotinylated protein in a baculovirus expression system (BPS Bioscience, Catalog #79463). The assay was conducted in black 384-well polystyrene plates in a final reaction volume of 20 μL. JAK2 JH2-WT (0.145 nM) was incubated with compounds (100 nL serially diluted in DMSO) in the presence of 50 nM Fluorescent JAK2-JH2 Tracer (MedChem Express Catalog #HY-102055) and 0.25 nM Streptavidin-Tb cryptate (Cisbio Part #610SATLB) in assay buffer (50 mM Tris, pH=7.5, 10 mM MgCl2, 0.01% Brij-35, 0.1% BSA, 1 mM EGTA, 5% Glycerol and 5 mM DTT). Non-specific binding was accessed in the presence of 2 mM ATP. After incubation for 1 hour at 25° C., LanthaScreen signals were read on a PHERAstar FS plate reader (BMG LAB TECH). Data was analyzed with IDBS XLfit and GraphPad Prism 5.0 software using a four parameter dose response curve to determine IC50 for each compound.
# [3] = target: catalytic domain (JH1, amino acids 826-1132) of human JAK2 (Homo sapiens (Human), UniProt O60674); assay: JAK2 LanthaScreen JH1 Binding Assay; conditions: JAK2 JH1 1.5 nM, 50 nM tracer, 2 hours at 25° C.; read-out: JH1 BIND IC50
# Chain of catalytic domain (JH1, amino acids 826-1132) of human JAK2 (O60674 826-1132): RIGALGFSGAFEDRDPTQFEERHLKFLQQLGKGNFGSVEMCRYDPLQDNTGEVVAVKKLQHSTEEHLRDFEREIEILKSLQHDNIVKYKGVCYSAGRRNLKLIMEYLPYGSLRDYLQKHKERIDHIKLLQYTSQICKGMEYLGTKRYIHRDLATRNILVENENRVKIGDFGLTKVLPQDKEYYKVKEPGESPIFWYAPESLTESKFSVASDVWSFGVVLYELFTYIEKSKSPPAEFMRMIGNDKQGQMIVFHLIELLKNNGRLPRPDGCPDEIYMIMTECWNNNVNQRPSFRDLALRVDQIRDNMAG
# Protocol: Example A. JAK2 LanthaScreen JH1 Binding Assay
# JAK2 JH1 binding assay utilizes catalytic domain (JH1, amino acids 826-1132) of human JAK2 expressed as N-terminal FLAG-tagged, biotinylated protein in a baculovirus expression system (Carna Biosciences, Product #08-445-20N). The assay was conducted in black 384-well polystyrene plates in a final reaction volume of 20 μL. JAK2 JH1 (1.5 nM) was incubated with compounds (100 nL serially diluted in DMSO) in the presence of 50 nM Fluorescent JAK2-JH1 Tracer and 0.5 nM Streptavidin-Tb cryptate (Cisbio Part #610SATLB) in assay buffer (50 mM Tris, pH=7.5, 10 mM MgCl2, 0.01% Brij-35, 0.1% BSA, 1 mM EGTA, 5% Glycerol and 5 mM DTT). Non-specific binding was accessed in the presence of 2 mM ATP. After incubation for 2 hours at 25° C., LanthaScreen signals were read on a PHERAstar FS plate reader (BMG LABTECH). Data was analyzed with IDBS XLfit and GraphPad Prism 5.0 software using a four parameter dose response curve to determine IC50 for each compound.
# [4] = target: pseudo-kinase domain (JH2, amino-acids 536-812) of human V617F mutant JAK2 (Homo sapiens (Human), UniProt O60674, F794H/V617F/W659A/W777A); assay: JAK2 LanthaScreen JH2-V617F Binding Assay; conditions: JAK2 JH2-V617F 0.26 nM, 50 nM tracer, 1 hour at 25° C.; read-out: JH2 BIND V617F IC50
# Chain of pseudo-kinase domain (JH2, amino-acids 536-812) of human V617F mutant JAK2 (O60674 536-812 V617F/W659A/W777A/F794H): as the sequence (O60674 536-812 W659A/W777A/F794H) above, with V82F counted along it
# Protocol: Example C. JAK2 LanthaScreen JH2-V617F Binding Assay
# as §1, with “JH2-V617F” for “JH2-WT”, “V617F mutant” for “Wild Type”, “#79498).” for “#79463).”, “JH2-V617F (0.26” for “JH2-WT (0.145”, “LABTECH).” for “LAB TECH).”
# Chain of catalytic domain (JH1, amino acids 808-1132) of human JAK2 (O60674 808-1132): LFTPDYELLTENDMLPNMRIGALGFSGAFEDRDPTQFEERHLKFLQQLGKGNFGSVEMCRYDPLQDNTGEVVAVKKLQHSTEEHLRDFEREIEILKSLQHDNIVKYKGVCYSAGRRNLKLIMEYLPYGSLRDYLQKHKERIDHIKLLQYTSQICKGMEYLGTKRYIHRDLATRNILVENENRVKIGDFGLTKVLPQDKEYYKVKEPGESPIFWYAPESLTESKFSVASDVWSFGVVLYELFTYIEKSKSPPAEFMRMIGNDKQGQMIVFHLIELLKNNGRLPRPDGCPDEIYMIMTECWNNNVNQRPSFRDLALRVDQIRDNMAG
Structure (SMILES),IC50 [1],IC50 [2],IC50 [3],IC50 [4]
"CN(C)C(=O)c1ccc(-c2c(-c3cnn(C)c3)[nH]c3ncc4c(cc(Nc5cccc(-c6nnn[nH]6)c5)c(=O)n4C)c23)cc1 [Example 34, 4-(8-((3-(1H-tetrazol-5-yl)phenyl)amino)-6-methyl-2-(1-methyl-1H-pyrazol-4-yl)-7-oxo-6,7-dihydro-3H-pyrrolo[3,2-f][1,7]naphthyridin-1-yl)-N,N-dimethylbenzamide]",100 to 500 nM,≤ 100 nM,100 to 500 nM,≤ 100 nM
"CN(C)C(=O)c1ccc(-c2c(-c3cnn(C)c3)[nH]c3ncc4c(cc(NC5CCC(CC#N)CC5)c(=O)n4C)c23)cc1 (stereo not drawn) [Example 38, 4-(8-((4-(cyanomethyl)cyclohexyl)amino)-6-methyl-2-(1-methyl-1H-pyrazol-4-yl)-7-oxo-6,7-dihydro-3H-pyrrolo[3,2-f][1,7]naphthyridin-1-yl)-N,N-dimethylbenzamide]",≤ 100 nM,≤ 100 nM,100 to 500 nM,≤ 100 nM
"Cc1cc(-c2c(C3CCOCC3)c3c4cc(-c5ccc(CN6CCC(S(C)(=O)=O)CC6)cc5)[nH]c4ncc3n(C)c2=O)on1 [Example 21, 6-Methyl-8-(3-methylisoxazol-5-yl)-2-(4-((4-(methylsulfonyl)piperidin-1-yl)methyl)phenyl)-9-(tetrahydro-2H-pyran-4-yl)-3,6-dihydro-7H-pyrrolo[3,2-f][1,7]naphthyridin-7-one]",100 to 500 nM,≤ 100 nM,100 to 500 nM,≤ 100 nM
"COc1ccc(-c2c(C)c3c4cc(-c5ccc(CN6CCC(S(C)(=O)=O)CC6)cc5)[nH]c4ncc3n(C)c2=O)cc1 [Example 12, 8-(4-Methoxyphenyl)-6,9-dimethyl-2-(4-((4-(methylsulfonyl)piperidin-1-yl)methyl)phenyl)-3,6-dihydro-7H-pyrrolo[3,2-f][1,7]naphthyridin-7-one]",≤ 100 nM,≤ 100 nM,100 to 500 nM,≤ 100 nM
"Cc1c(-c2ccc(C(=O)O)cc2)c(=O)n(C)c2cnc3[nH]c(-c4ccc(CN5CCC(S(C)(=O)=O)CC5)cc4)cc3c12 [Example 8, 4-(6,9-Dimethyl-2-(4-((4-(methylsulfonyl)piperidin-1-yl)methyl)phenyl)-7-oxo-6,7-dihydro-3H-pyrrolo[3,2-f][1,7]naphthyridin-8-yl)benzoic acid]",100 to 500 nM,≤ 100 nM,100 to 500 nM,≤ 100 nM
"Cc1cc(-c2c(-c3ccc(C(=O)NCCO)cc3)c3c4cc(-c5cnn(C)c5)[nH]c4ncc3n(C)c2=O)on1 [Example 25, N-(2-hydroxyethyl)-4-(6-methyl-2-(1-methyl-1H-pyrazol-4-yl)-8-(3-methylisoxazol-5-yl)-7-oxo-6,7-dihydro-3H-pyrrolo[3,2-f][1,7]naphthyridin-9-yl)benzamide]",100 to 500 nM,≤ 100 nM,500 to 1000 nM,≤ 100 nM
"Cc1cc(=O)[nH]c2cnc3[nH]c(-c4ccc(CN5CCC(S(C)(=O)=O)CC5)cc4)cc3c12 [Example 17, 9-Methyl-2-(4-((4-(methylsulfonyl)piperidin-1-yl)methyl)phenyl)-3,6-dihydro-7H-pyrrolo[3,2-f][1,7]naphthyridin-7-one]",1000 to 10000 nM,1000 to 10000 nM,1000 to 10000 nM,1000 to 10000 nM
"COc1c(-c2ccccc2)c(=O)n(C)c2cnc3[nH]c(-c4ccc(CN5CCC(S(C)(=O)=O)CC5)cc4)cc3c12 [Example 20, 9-Methoxy-6-methyl-2-(4-((4-(methylsulfonyl)piperidin-1-yl)methyl)phenyl)-8-phenyl-3,6-dihydro-7H-pyrrolo[3,2-f][1,7]naphthyridin-7-one]",≤ 100 nM,≤ 100 nM,≤ 100 nM,100 to 500 nM
"COCCS(=O)(=O)C1CCN(c2cc3c4c(-c5ccc(C(=O)N(C)C)cc5)c(-c5cnn(C)c5)[nH]c4ncc3n(C)c2=O)CC1 [Example 40, 4-(8-(4-((2-Methoxyethyl)sulfonyl)piperidin-1-yl)-6-methyl-2-(1-methyl-1H-pyrazol-4-yl)-7-oxo-6,7-dihydro-3H-pyrrolo[3,2-f][1,7]naphthyridin-1-yl)-N,N-dimethylbenzamide]",1000 to 10000 nM,100 to 500 nM,1000 to 10000 nM,100 to 500 nM
"Cc1cc(-c2c(-c3ccc(-c4cnn(C)c4C)cc3)c3c4cc(-c5cnn(C)c5)[nH]c4ncc3n(C)c2=O)on1 [Example 31, 9-(4-(1,5-Dimethyl-1H-pyrazol-4-yl)phenyl)-6-methyl-2-(1-methyl-1H-pyrazol-4-yl)-8-(3-methylisoxazol-5-yl)-3,6-dihydro-7H-pyrrolo[3,2-f][1,7]naphthyridin-7-one]",500 to 1000 nM,≤ 100 nM,500 to 1000 nM,≤ 100 nM
"COCCN(C)c1ccc(-c2c(-c3cc(C)no3)c(=O)n(C)c3cnc4[nH]c(-c5cnn(C)c5)cc4c23)cc1 [Example 29, 9-(4-((2-Methoxyethyl)(methyl)amino)phenyl)-6-methyl-2-(1-methyl-1H-pyrazol-4-yl)-8-(3-methylisoxazol-5-yl)-3,6-dihydro-7H-pyrrolo[3,2-f][1,7]naphthyridin-7-one]",100 to 500 nM,≤ 100 nM,100 to 500 nM,≤ 100 nM
"COc1ccc(-c2c(-c3cnn(C)c3)[nH]c3ncc4c(cc(C(=O)N(C)C)c(=O)n4C)c23)cc1 [Example 42, 1-(4-Methoxyphenyl)-N,N,6-trimethyl-2-(1-methyl-1H-pyrazol-4-yl)-7-oxo-6,7-dihydro-3H-pyrrolo[3,2-f][1,7]naphthyridine-8-carboxamide]",1000 to 10000 nM,≤ 100 nM,1000 to 10000 nM,≤ 100 nM
